Results from US12115178B2, “Acylated active agents and methods of their use for the treatment of autoimmune disorders” (Flagship Pioneering Innovations V, Inc., priority 2018, dated 2024).

How the values were obtained:
DSS Colitis = assay: In vivo DSS colitis; set-up: species or system Swiss Webster mice; conditions: 100 mg/kg once a day oral gavage, study day 0 through 7, compared to the vehicle control
Text: Specific pathogen-free female Swiss Webster mice, 6-8 weeks old, weighing 16-20 g were obtained from Harlan. Mice were randomized into treatment groups (n=10) based on body weight on study day −2. From study day 0 through 5, all groups were given 3% dextran sulfate sodium (DSS, Spectrum, Lot #2DC0020) in drinking water. On study day 5 through, drinking water was switched to water without DSS until the study end on day 7. From study day 0 through 7, the negative control (vehicle), positive control (cyclosporine A), and the treatment groups were given vehicle (1% Methylcellulose (Sigma, 400 cP)), cyclosporine A (70 mg/kg), and compound 44 (100 mg/kg) once a day until study day 7 via oral gavage. On study day 7, animals were anesthetized with Isoflurane and bled to exsanguination followed by cervical dislocation. The entire colon was removed and the overall efficacy of compound 44 was assessed based on colon histopathology. […] Statistical analysis was performed with GraphPad Prism (GraphPad Software). Mann-Whitney U test was used to assess significance between the vehicle control and each treatment group.

[1] = system: adoptive T-cell transfer mice; assay: Adoptive T-cell transfer study; assay type: in vivo, CB-17 SCID mice; conditions: compound 44 100 mg/kg, olsalazine 30 mg/kg, through day 42, compared to the vehicle control
Text: On study day 0, naïve T-cells were obtained from the spleen of 11 to 12 week-old Balb/C mice using the SCID Cell Separation Protocol with the following labelling scheme; CD4+CD45RB^highCD25− and CD4+CD45RB^lowCD25+ cell (APC CD4 Antibody (100412), FITC CD45RB Antibody (103306), PE CD25 Antibody (101904), from BioLegend, San Diego, CA, and CD4 cell enrichment kit: 19752A, Stemcell Technologies, Cambridge, MA) and the 4×10^5 of CD4^+CD45RB^highCD25− cells were transferred 6-7 weeks old CB-17 SCID mice. Recipient mice were randomized based on their body weight (n=12 mice/group), and received […] of vehicle (0.5% methyl-cellulose) (vehicle control), 0.5 mg per mouse of anti-IL-12 (positive control), 30 mg/kg of olsalazine (positive treatment group), and 100 mg/kg of compound 44 (compound treatment group) through day 42. On day 42, animals were anesthetized with Isoflurane and bled to exsanguination followed by cervical dislocation. The entire colon was removed and the overall efficacy of compound 44 was assessed based on colon length and weight per length. […] Statistical analysis was performed with GraphPad Prism (GraphPad Software). Mann-Whitney U test was used to assess significance between the vehicle control and each treatment group.

[2] = Detection of mesalamine and compound 44 in feces after dosing with compound 44; assay type: in vivo, Swiss Webster mice; conditions: detected after dosing with Compound 44, oral gavage 10 mg/mL suspension at 10 mL/kg, mice
Description: Samples were frozen and stored at −70° C. until analysis. Quantification of mesalamine and compound 44 were done via bioanalysis using LC-MS/MS.

[3] = Detection of compound 44 in whole blood after dosing with compound 44; assay type: in vivo, Swiss Webster mice; conditions: detected after dosing with Compound 44, oral gavage 10 mg/mL suspension at 10 mL/kg, mice
Description: Whole blood (125 uL) was collected submandibular and transferred to chilled K2EDTA tubes pre-filled with 125 uL of acetonitrile and frozen at −70° C. until analysis. Mice (1-3) were sampled at 5 min, 1 hr, and 8 hr. Mice (4-6) were sampled at 15 min, 2 hours and 24 hours. Mice (7-9) were sampled at 30 min and 4 hrs. Quantification of compound 44 was done via bioanalysis using LC-MS/MS.

Q: Which “mucosal thickness (colon histopathology, FIG. 2)” value (DSS Colitis) does the source give for `CCCC(=O)O[C@H]1[C@H](OC(=O)CCC)COC(Oc2ccc(N)cc2C(=O)O)[C@@H]1OC(=O)CCC.Cl` (stereo in doubt) [Compound 44, 5-amino-2-(((2S,3R,4S,5R)-3,4,5-tris(butyryloxy)tetrahydro-2H-pyran-2-yl)oxy)benzoic acid hydrochloride] here?
A: significant reduction in mucosal thickness

Q: And the “colon length (FIG. 3A)” value [1]?
A: significant increased

Q: What about the “colon weight per length (FIG. 3B)” value [1] of the same molecule?
A: reduced

Q: What about the “Concentration, uM (compound 44)” value [2] of the same molecule?
A: 10.72 µM

Q: And the “Concentration, uM (compound 44)” value [3]?
A: 0.68 µM
